Test results as given in ChEMBL document CHEMBL4043139, “Fluoro and pentafluorothio analogs of the antitumoral curcuminoid EF24 with superior antiangiogenic and vascular-disruptive effects” (Bioorg Med Chem, 2017).
Activity calls are given as the source filed them. The calls are words filed in the database; no cut-off is given here.

Experiments:
518A2 [1] = experiment: Cytotoxicity against human 518A2 cells after 72 hrs by MTT assay; format: functional, cell-based; conditions: for IC50: 518A2, 72 h
HT-29 [2] = experiment: Cytotoxicity against human HT-29 cells after 72 hrs by MTT assay; format: functional, cell-based; conditions: for IC50: HT-29, 72 h
HCT-116 = experiment: Cytotoxicity against human HCT116 cells after 72 hrs by MTT assay; format: functional, cell-based; conditions: for IC50: HCT-116, 72 h
DLD-1 = experiment: Cytotoxicity against human DLD1 cells after 72 hrs by MTT assay; format: functional, cell-based; conditions: for IC50: DLD-1, 72 h
PANC-1 = experiment: Cytotoxicity against human PANC1 cells after 72 hrs by MTT assay; format: functional, cell-based; conditions: for IC50: PANC-1, 72 h
[3] = (§1) Cytotoxicity against human KB-V1/Vbl cells after 72 hrs by MTT assay; format: functional, cell-based
KB-V1/Vbl = experiment: as §1; format: functional, cell-based
[4] = (§2) Cytotoxicity against human MCF7/Topo cells after 72 hrs by MTT assay; format: functional, cell-based
MCF7/Topo = experiment: as §2; format: functional, cell-based
HT-29 [5] = experiment: Upregulation of cyclin B1 expression in human HT-29 cells at 2.5 to 5 uM after 24 hrs by Western blot analysis; format: functional, cell-based
[6] = (§3) Cytotoxicity against human U87 cells after 72 hrs by MTT assay; format: functional, cell-based, U-87MG ATCC; conditions: U-87 MG
U-87MG ATCC [7] = experiment: as §3; format: functional, cell-based
[8] = Cytotoxicity against HDFa after 72 hrs by MTT assay; format: cell-based; conditions: Homo sapiens
HT-29 [9] = experiment: Cell cycle arrest in human HT-29 cells assessed as accumulation at sub-G1 phase at 1 uM after 24 hrs by propidium iodide staining based flow cytometric analysis (reference value: 0.9 +/- 0.1%); format: functional
HT-29 [10] = experiment: Cell cycle arrest in human HT-29 cells assessed as accumulation at sub-G1 phase at 2.5 uM after 24 hrs by propidium iodide staining based flow cytometric analysis (reference value: 0.9 +/- 0.1%); format: functional
HT-29 [11] = experiment: Cell cycle arrest in human HT-29 cells assessed as accumulation at sub-G1 phase at 5 uM after 24 hrs by propidium iodide staining based flow cytometric analysis (reference value: 0.9 +/- 0.1%); format: functional
HT-29 [12] = experiment: Cell cycle arrest in human HT-29 cells assessed as accumulation at G1 phase at 1 uM after 24 hrs by propidium iodide staining based flow cytometric analysis (reference value: 68 +/- 0.9%); format: functional
HT-29 [13] = experiment: Cell cycle arrest in human HT-29 cells assessed as accumulation at G1 phase at 2.5 uM after 24 hrs by propidium iodide staining based flow cytometric analysis (reference value: 68 +/- 0.9%); format: functional
HT-29 [14] = experiment: Cell cycle arrest in human HT-29 cells assessed as accumulation at G1 phase at 5 uM after 24 hrs by propidium iodide staining based flow cytometric analysis (reference value: 68 +/- 0.9%); format: functional
HT-29 [15] = experiment: Cell cycle arrest in human HT-29 cells assessed as accumulation at S phase at 1 uM after 24 hrs by propidium iodide staining based flow cytometric analysis (reference value: 15.6 +/- 0.3%); format: functional
HT-29 [16] = experiment: Cell cycle arrest in human HT-29 cells assessed as accumulation at S phase at 2.5 uM after 24 hrs by propidium iodide staining based flow cytometric analysis (reference value: 15.6 +/- 0.3%); format: functional
HT-29 [17] = experiment: Cell cycle arrest in human HT-29 cells assessed as accumulation at S phase at 5 uM after 24 hrs by propidium iodide staining based flow cytometric analysis (reference value: 15.6 +/- 0.3%); format: functional
HT-29 [18] = experiment: Cell cycle arrest in human HT-29 cells assessed as accumulation at G2/M phase at 1 uM after 24 hrs by propidium iodide staining based flow cytometric analysis (reference value: 15.5 +/- 0.5%); format: functional
HT-29 [19] = experiment: Cell cycle arrest in human HT-29 cells assessed as accumulation at G2/M phase at 2.5 uM after 24 hrs by propidium iodide staining based flow cytometric analysis (reference value: 15.5 +/- 0.5%); format: functional
HT-29 [20] = experiment: Cell cycle arrest in human HT-29 cells assessed as accumulation at G2/M phase at 5 uM after 24 hrs by propidium iodide staining based flow cytometric analysis (reference value: 15.5 +/- 0.5%); format: functional
Homo sapiens [21] = organism: Homo sapiens; experiment: Inhibition of NF-kappaB in human 518A2 cells assessed as reduction in p65 subunit expression at 0.5 to 1 uM after 24 hrs by Western blot analysis; format: cell-based
Danio rerio = organism: Danio rerio; experiment: Antiangiogenic activity in 72 hrs post fertilized zebra fish embryo harboring fli1a:EGFP assessed as area of subintestinal veins at 5 uM after 48 hrs by fluorescence microscopic analysis (reference value: 100%); format: functional
Gallus gallus [22] = experiment: Vascular disruptive activity in 6 days post fertilized chicken egg chorioallantoic/vitelline membrane assessed as degradation of blood vessels at 10 nmol administered topically measured after 6 to 24 hrs by stereo-microscopic analysis; format: functional
Gallus gallus [23] = experiment: Vascular disruptive activity in 6 days post fertilized chicken egg assessed as area covered by blood vessels at 10 nmol administered topically measured after 6 hrs by light microscopic analysis relative to control; format: functional
U-87MG ATCC [24] = experiment: Anti-vasculogenic activity in human U87 cells assessed as reduction in formation of cord-like structures at 1.5 uM after 24 hrs by matrigel based light microscopic analysis; format: functional, cell-based
U-87MG ATCC [25] = experiment: Anti-vasculogenic activity in human U87 cells assessed as reduction in formation of blood-vessel like tubular structures at 1.5 uM after 24 hrs by matrigel based light microscopic analysis; format: functional, cell-based
[26] = Cytotoxicity against human U87 cells assessed as cell viability at 10 nmol after 24 hrs by MTT assay relative to control; format: cell-based, U-87MG ATCC; conditions: read-out: Activity
U-87MG ATCC [27] = experiment: Vascular disruptive activity in human U87 cells assessed as disruption of preformed tubular networks at 1 uM after 24 hrs by matrigel based light microscopic analysis; format: functional, cell-based
[28] = Cytotoxicity against human U87 cells assessed as effect on cell viability at 1 uM after 24 hrs by MTT assay; format: cell-based; conditions: u-87mg atcc
Gallus gallus [29] = experiment: Vascular disruptive activity in 6 days post fertilized chicken egg chorioallantoic/vitelline membrane assessed as disruption of capillary reticulation at 10 nmol administered topically measured after 6 hrs by stereo-microscopic analysis; format: functional
Gallus gallus [30] = experiment: Vascular disruptive activity in 6 days post fertilized chicken egg chorioallantoic/vitelline membrane assessed as degradation of blood vessels at 10 nmol administered topically measured after 6 hrs by stereo-microscopic analysis; format: functional
HT-29 [31] = experiment: Upregulation of cyclin B1 expression in human HT-29 cells at 1 to 2.5 uM after 24 hrs by Western blot analysis; format: functional, cell-based
Homo sapiens [32] = organism: Homo sapiens; experiment: Inhibition of NF-kappaB in human 518A2 cells assessed as reduction in p65 subunit expression at 1 to 2 uM after 24 hrs by Western blot analysis; format: cell-based
518A2 [33] = experiment: Anti-migratory activity in human 518A2 cells assessed as wound closure at 250 nM after 24 hrs by light microscopic analysis; format: functional, cell-based
518A2 [34] = experiment: Anti-migratory activity in human 518A2 cells assessed as wound closure at 250 nM after 48 hrs by light microscopic analysis (reference value: 100%); format: functional
U-87MG ATCC [35] = experiment: Anti-vasculogenic activity in human U87 cells assessed as reduction in formation of cord-like structures at 2.5 uM after 24 hrs by matrigel based light microscopic analysis; format: functional, cell-based
U-87MG ATCC [36] = experiment: Anti-vasculogenic activity in human U87 cells assessed as reduction in formation of blood-vessel like tubular structures at 2.5 uM after 24 hrs by matrigel based light microscopic analysis; format: functional, cell-based

Structure (SMILES) | Activity (518A2 [1]) | IC50 (518A2 [1]) [nM] | Activity (HT-29 [2]) | IC50 (HT-29 [2]) [nM] | Activity (HCT-116) | IC50 (HCT-116) [nM] | Activity (DLD-1) | IC50 (DLD-1) [nM] | Activity (PANC-1) | IC50 (PANC-1) [nM] | IC50 [3] [nM] | Activity (KB-V1/Vbl) | IC50 [4] [nM] | Activity (MCF7/Topo) | IC50 [6] [nM] | Activity (U-87MG ATCC [7]) | IC50 [8] [nM] | Activity (HT-29 [9]) [%] | Activity (HT-29 [10]) [%] | Activity (HT-29 [11]) [%] | further results
O=C1/C(=C/c2ccccc2F)CNC/C1=C\c1ccccc1F | Dose-dependent effect | 1800 | Dose-dependent effect | 1600 | Dose-dependent effect | 1500 | Dose-dependent effect | 1300 | Dose-dependent effect | 1500 | 1100 | Dose-dependent effect | 2200 | Dose-dependent effect | 1400 | Dose-dependent effect | 8500 | 3.3 | 12.9 | 7.1 | Activity (HT-29 [5]): Active; Activity (HT-29 [12]): 59.1%; Activity (HT-29 [13]): 38.9%; Activity (HT-29 [14]): 35.8%; Activity (HT-29 [15]): 21%; Activity (HT-29 [16]): 22.3%; Activity (HT-29 [17]): 22.6%; Activity (HT-29 [18]): 16.6%; Activity (HT-29 [19]): 25.9%; Activity (HT-29 [20]): 34.4%; inhibition (Homo sapiens [21]): Active; Activity (Danio rerio): 74%; Activity (Gallus gallus [22]): Active; Activity (Gallus gallus [23]): 43%; Activity (U-87MG ATCC [24]): Active; Activity (U-87MG ATCC [25]): Active; viability at 24 h, 10 nmol [26]: > 85%; Activity (U-87MG ATCC [27]): Active; Activity [28]: Non-Toxic
CN1C/C(=C\c2c(F)cc(F)cc2F)C(=O)/C(=C/c2c(F)cc(F)cc2F)C1 | Dose-dependent effect | > 10000 | Dose-dependent effect | > 10000 | Dose-dependent effect | > 10000 | Dose-dependent effect | > 10000 | Dose-dependent effect | > 10000 | 820 | Dose-dependent effect | 2100 | Dose-dependent effect | > 10000 | Dose-dependent effect | > 10000 | 5 | 30.1 | 32.7 | Activity (Gallus gallus [29]): Active; Activity (Gallus gallus [30]): Active; Activity (HT-29 [12]): 58.9%; Activity (HT-29 [13]): 25.5%; Activity (HT-29 [14]): 22.2%; Activity (HT-29 [15]): 18.3%; Activity (HT-29 [16]): 7.4%; Activity (HT-29 [17]): 8.1%; Activity (HT-29 [18]): 17.8%; Activity (HT-29 [19]): 37%; Activity (HT-29 [20]): 36.9%; Activity (HT-29 [31]): Active; inhibition (Homo sapiens [32]): Active; Activity (518A2 [33]): Active; Activity (518A2 [34]): Active; Activity (Gallus gallus [23]): 40%; Activity (U-87MG ATCC [35]): inactive; Activity (U-87MG ATCC [36]): inactive; viability at 24 h, 10 nmol [26]: > 85%
